Experimental data published in patent publication US4318989A, “Starch-degrading enzymes from Cladosporium resinae” (Lifeline Products, Inc., priority 1980, dated 1982).

How the values were obtained:
[1] = tested on: Cladosporium resinae glucoamylase S; assay: Kinetic constants of glucoamylases (release of glucose from substrate); type: biochemical, Cladosporium resinae (ATCC No. 20495); conditions: Table VI
[2] = tested on: Aspergillus niger glucoamylase II; assay: as above; type: biochemical; conditions: Table VI
Experimental: In assaying the rate of release of glucose from starch, pullulan or maltose, enzyme solution (culture solution) (0.1 ml) undiluted or diluted up to 100-fold, was incubated with substrate solution (0.5 ml) for 5 to 20 minutes at 37° C. […]. This reaction was terminated and the color developed by adding 50% HCl solution (2 ml). Substrates employed were pullulan, maltose and J. T. Baker Starch (Lintner) Soluble all at 5 mg/ml concentration and in 0.1 M sodium acetate buffer pH 4.3. α-amylase was assayed by the method described in Marshall, J.J., et al, Clinica Chemica Acta, 76, 277 (1977).
The relative rates of hydrolysis of several glucooligosaccharides and polysaccharides are shown in Table V based upon data shown in FIG. 6-11. Results are compared to those obtained using Aspergillus niger glucoamylase II. […] Table VI provides the kinetic constants of the Cladosporium resinae glucoamylases and Asperigillus niger glucoamylase.

How did the VMAX [1] turn out when `OC[C@H]1O[C@H](O[C@H]2[C@H](O)[C@@H](O)C(O)O[C@@H]2CO)[C@H](O)[C@@H](O)[C@@H]1O` (mixture of isomers) [Maltose] was run?
Its VMAX is 2.9 μmoles glucose released per mi.

And the VMAX [2]?
The VMAX was 4.8 μmoles glucose released per mi.
